# According to patent US12060347B2 (BRISTOL-MYERS SQUIBB COMPANY, priority 2016, dated 2024):
# Molecular target: T1, human PAR4 (Homo sapiens, UniProt Q96RI0)
# T1 construct: expressed in transfected cells; host or cells: HEK293 PAR4 Clone 1.2A (BMS Arctic ID 383940)
# T1 sequence (Q96RI0 18-385): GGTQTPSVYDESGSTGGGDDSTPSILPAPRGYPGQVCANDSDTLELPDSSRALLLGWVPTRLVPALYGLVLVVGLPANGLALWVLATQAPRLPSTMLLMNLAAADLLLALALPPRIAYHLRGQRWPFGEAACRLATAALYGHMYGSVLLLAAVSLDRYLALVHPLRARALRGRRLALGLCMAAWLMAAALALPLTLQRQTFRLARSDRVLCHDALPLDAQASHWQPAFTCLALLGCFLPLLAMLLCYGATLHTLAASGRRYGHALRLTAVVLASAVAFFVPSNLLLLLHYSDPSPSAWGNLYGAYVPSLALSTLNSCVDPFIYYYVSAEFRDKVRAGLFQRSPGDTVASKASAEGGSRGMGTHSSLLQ
# Assay: PAR4 FLIPR assay: antagonism of agonist-peptide-induced calcium mobilization in PAR4-expressing HEK293 cells
# Type: cell-based
# Conditions: H-Ala-Phe(4-F)-[…]NH2-induced intracellular calcium mobilization, 11-point curves
row,SMILES,IC50 [nM]
1,"CCc1cnc2c(-c3cc4ccccc4o3)cc(C)cc2n1 [Example 132, 5-(benzofuran-2-yl)-2-ethyl-7-methylquinoxaline]",59
2,"Cc1ccc(-c2cc3ccccc3o2)c2ncc(OC(F)F)nc12 [Example 133, 5-(benzofuran-2-yl)-2-(difluoromethoxy)-8-methylquinoxaline]",570
3,"COc1cnc2c(-c3cc4ccccc4o3)nc(C)cc2c1 [Example 134, 8-(benzofuran-2-yl)-3-methoxy-6-methyl-1,7-naphthyridine\]",120
4,"Cc1cc(-c2cc3ccccc3o2)c2ncc(-c3ccoc3)nc2c1 [Example 135, 5-(benzofuran-2-yl)-2-(furan-3-yl)-7-methylquinoxaline]",2200
5,"Cc1cc(-c2nc3c(s2)CCC3)c2ncc(OC(F)F)nc2c1 [Example 136, 2-(2-(difluoromethoxy)-7-methylquinoxalin-5-yl)-5,6-dihydro-4H-cyclopenta[d]thiazole]",29
6,"COc1cnc2c(-c3nc4c(s3)CCCCC4)cc(C)cc2n1 [Example 137, 2-(2-methoxy-7-methylquinoxalin-5-yl)-5,6,7,8-tetrahydro-4H-cyclohepta[d]thiazole]",29
7,"COc1cnc2c(-c3nc4c(s3)C(O)CCC4)cc(C)cc2n1 (stereo not shown) [Example 138, 2-(2-methoxy-7-methylquinoxalin-5-yl)-4,5,6,7-tetrahydrobenzo[d]thiazol-7-ol]",33
8,"COc1cnc2c(-c3nc4c(s3)C(OC)CCC4)cc(C)cc2n1 (stereo not shown) [Example 139, 7-methoxy-2-(2-methoxy-7-methylquinoxalin-5-yl)-4,5,6,7-tetrahydrobenzo[d]thiazole]",3.9
9,"COc1cnc2c(-c3nc4c(s3)CC(OC)CC4)cc(C)cc2n1 (stereo not shown) [Example 140, 6-methoxy-2-(2-methoxy-7-methylquinoxalin-5-yl)-4,5,6,7-tetrahydrobenzo[d]thiazole]",21
10,"COc1cnc2c(-c3nc4c(s3)CC(C)(C)CC4)cc(C)cc2n1 [Example 141, 2-(2-methoxy-7-methylquinoxalin-5-yl)-6,6-dimethyl-4,5,6,7-tetrahydrobenzo[d]thiazole]",80
11,"COc1cnc2c(-c3nc4c(s3)CC(CCO)C4)cc(C)cc2n1 (stereo not shown) [Example 142, 2-(2-(2-methoxy-7-methylquinoxalin-5-yl)-5,6-dihydro-4H-cyclopenta[d]thiazol-5-yl) ethanol]",5.6
12,"COCc1cnc2c(-c3nc4c(s3)C(O)CCC4)cc(C)cc2n1 (stereo not shown) [Example 143, 2-(2-(methoxymethyl)-7-methylquinoxalin-5-yl)-4,5,6,7-tetrahydrobenzo[d]thiazol-7-ol]",36
13,"COCc1cnc2c(-c3nc4c(s3)CCCC4)cc(C)cc2n1 [Example 144, 2-(2-(methoxymethyl)-7-methylquinoxalin-5-yl)-4,5,6,7-tetrahydrobenzo[d]thiazole]",0.3
14,"COCc1cnc2c(-c3nc4c(s3)C(O)C(C)(C)CC4)cc(C)cc2n1 (stereo not shown) [Example 145, 2-(2-(methoxymethyl)-7-methylquinoxalin-5-yl)-6,6-dimethyl-4,5,6,7-tetrahydrobenzo[d] thiazol-7-ol]",4.5
15,"COCc1cnc2c(-c3nc4cnccc4s3)cc(C)cc2n1 [Example 146, 2-(2-(methoxymethyl)-7-methylquinoxalin-5-yl)thiazolo[4,5-c]pyridine]",7
16,COCc1cnc2c(-c3nc4ccc(OC)nc4s3)cc(C)cc2n1 [Example 147],1.7
17,"COCc1cnc2c(-c3nc4cccnc4s3)cc(C)cc2n1 [Example 148, 2-(2-(methoxymethyl)-7-methylquinoxalin-5-yl)thiazolo[5,4-b]pyridine]",48
18,"COCc1cnc2c(-c3nc4c(Cl)cncc4s3)cc(C)cc2n1 [Example 149, 7-chloro-2-(2-(methoxymethyl)-7-methylquinoxalin-5-yl)thiazolo[5,4-c]pyridine]",4.2
19,"COc1cnc2c(-c3nc4ccc(OC)nc4s3)cc(C)cc2n1 [Example 150, 5-methoxy-2-(2-methoxy-7-methylquinoxalin-5-yl)thiazolo[5,4-b]pyridine]",94
20,"COc1cnc2c(-c3nc4c(Cl)cncc4s3)cc(C)cc2n1 [Example 151, 7-chloro-2-(2-methoxy-7-methylquinoxalin-5-yl)thiazolo[5,4-c]pyridine]",2000

row,SMILES,IC50 [nM]
1,"COC(=O)c1cc(OC)cc2sc(-c3cc(C)cc4nc(OC)cnc34)nc12 [Example 152, methyl 6-methoxy-2-(2-methoxy-7-methylquinoxalin-5-yl)benzo[d]thiazole-4-carboxylate]",38
2,"COCc1cnc2c(-c3nc4c(C)cc(OC)cc4s3)nc(C)cc2c1 [Example 153, 6-methoxy-2-(3-(methoxymethyl)-6-methyl-1,7-naphthyridin-8-yl)-4-methylbenzo[d]thiazole]",16
3,"COc1cc(CO)c2nc(-c3cc(C)cc4nc(OC)cnc34)sc2c1 [Example 154, (6-methoxy-2-(2-methoxy-7-methylquinoxalin-5-yl)benzo[d]thiazol-4-yl)methanol]",3.8
4,"COCc1cnc2c(-c3nc4c(CO)cc(OC)cc4s3)cc(C)cc2n1 [Example 155, (6-methoxy-2-(2-(methoxymethyl)-7-methylquinoxalin-5-yl)benzo[d]thiazol-4-yl) methanol]",0.8
5,"COCc1cnc2c(-c3nc4c(C(C)O)cc(OC)cc4s3)cc(C)cc2n1 (stereo not shown) [Example 156, 1-(6-methoxy-2-(2-(methoxymethyl)-7-methylquinoxalin-5-yl)benzo[d]thiazol-4-yl) ethanol]",1.4
6,"COCc1cnc2c(-c3nc4c(C(C)(C)O)cc(OC)cc4s3)cc(C)cc2n1 [Example 157, 2-(6-methoxy-2-(2-(methoxymethyl)-7-methylquinoxalin-5-yl)benzo[d]thiazol-4-yl) propan-2-ol]",31
7,"COCc1cnc2c(-c3nc4c(C(O)C5CC5)cc(OC)cc4s3)cc(C)cc2n1 (stereo not shown) [Example 158, Cyclopropyl(6-methoxy-2-(2-(methoxymethyl)-7-methylquinoxalin-5-yl)benzo[d]thiazol-4-yl)methanol]",0.7
8,"COCc1cnc2c(-c3nc4c(CN(C)C)cc(OC)cc4s3)cc(C)cc2n1 [Example 159, 1-(6-methoxy-2-(2-(methoxymethyl)-7-methylquinoxalin-5-yl)benzo[d]thiazol-4-yl)-N,N-dimethylmethanamine]",25
9,"COc1cc(C(O)C2CC2)c2nc(-c3cc(C)cc4nc(OC)cnc34)sc2c1 (stereo not shown) [Example 160, Cyclopropyl(6-methoxy-2-(2-methoxy-7-methylquinoxalin-5-yl)benzo[d]thiazol-4-yl) methanol]",1.2
10,"COCc1cnc2c(-c3nc4c(C(O)c5ccccc5)cc(OC)cc4s3)cc(C)cc2n1 (stereo not shown) [Example 161, (6-methoxy-2-(2-(methoxymethyl)-7-methylquinoxalin-5-yl)benzo[d]thiazol-4-yl) (phenyl)methanol]",0.7
11,"COCc1cnc2c(-c3nc4c(C(=O)O)cc(OC)cc4s3)cc(C)cc2n1 [Example 162, 6-methoxy-2-(2-(methoxymethyl)-7-methylquinoxalin-5-yl)benzo[d]thiazole-4-carboxylic acid]",270
12,"COCc1cnc2c(-c3nc4c(C(O)C5CCCCC5)cc(OC)cc4s3)cc(C)cc2n1 (stereo not shown) [Example 165, Cyclohexyl(6-methoxy-2-(2-(methoxymethyl)-7-methylquinoxalin-5-yl)benzo[d]thiazol-4-yl)methanol]",1.2
13,"COCc1cnc2c(-c3nc4c(C(O)C5CCC5)cc(OC)cc4s3)cc(C)cc2n1 (stereo not shown) [Example 166, Cyclobutyl(6-methoxy-2-(2-(methoxymethyl)-7-methylquinoxalin-5-yl)benzo[d]thiazol-4-yl)methanol]",2.8
14,"COCc1cnc2c(-c3nc4c(C(O)c5ccccn5)cc(OC)cc4s3)cc(C)cc2n1 (stereo not shown) [Example 167, (6-methoxy-2-(2-(methoxymethyl)-7-methylquinoxalin-5-yl)benzo[d]thiazol-4-yl)(pyridin-2-yl)methanol]",4.5
15,"COCc1cnc2c(-c3nc4c(C(O)c5cccnc5)cc(OC)cc4s3)cc(C)cc2n1 (stereo not shown) [Example 168, (6-methoxy-2-(2-(methoxymethyl)-7-methylquinoxalin-5-yl)benzo[d]thiazol-4-yl) (pyridin-3-yl)methanol]",2
16,"COCc1cnc2c(-c3nc4c(C(O)C(F)(F)F)cc(OC)cc4s3)cc(C)cc2n1 (stereo not shown) [Example 171, 2,2,2-trifluoro-1-(6-methoxy-2-(2-(methoxymethyl)-7-methylquinoxalin-5-yl)benzo[d]thiazol-4-yl)ethanol]",0.6
17,"COCc1cnc2c(-c3nc4c(C(O)c5ccncc5)cc(OC)cc4s3)cc(C)cc2n1 (stereo not shown) [Example 172, (6-methoxy-2-(2-(methoxymethyl)-7-methylquinoxalin-5-yl)benzo[d]thiazol-4-yl)(pyridin-4-yl)methanol]",1.7
18,"COCc1cnc2c(-c3nc4c(C(O)CC(F)(F)F)cc(OC)cc4s3)cc(C)cc2n1 (stereo not shown) [Example 173, 3,3,3-trifluoro-1-(6-methoxy-2-(2-(methoxymethyl)-7-methylquinoxalin-5-yl)benzo[d]thiazol-4-yl)propan-1-ol]",2.7
19,"COc1cc(C(O)C(F)(F)F)c2nc(-c3cc(C)cc4nc(OC)cnc34)sc2c1 (stereo not shown) [Example 174, 2,2,2-trifluoro-1-(6-methoxy-2-(2-methoxy-7-methylquinoxalin-5-yl)benzo[d]thiazol-4-yl)ethanol]",3
20,"COc1cnc2c(-c3cc4ccccc4o3)cc(C)cc2n1 [Example 175, 5-(benzofuran-2-yl)-2-methoxy-7-methylquinoxaline]",23
